Measurements reported in article PMC11325505, “Nitrogen-Containing Flavonoids—Preparation and Biological Activity” (ACS Omega, 2024).

System: transmembrane efflux pumps
Assay: Ethidium bromide accumulation assay
Format: cell-based, S. aureus MSSA 2
Conditions: for accumulation of ethidium bromide compared to 100 μM CCCP: compound at 25 μM, relative to CCCP (100 μM); for efflux inhibition (ethidium bromide accumulation), in words: compared with comparator CCCP, concentrations 25–100 μM
Text: The application of antibiotics often leads to oxidative stress in bacteria, which triggers the efflux pump systems that contribute to antimicrobial resistance.[34] Therefore, modulation of the efflux system has been proposed as another plausible target of derivatives. The efflux pump inhibitor carbonyl cyanide 3-chlorophenylhydrazone (CCCP) was used as a comparator in our assay. Its action destroys the proton-motive force at the membrane so that the efflux pump cannot transport substrates out of the cell. One such universal substrate is ethidium bromide, the accumulation of which in the cell can be measured using fluorescence.
The accumulation assay was performed according to previously published methods with minor modifications.[15],[42] Briefly, a bacterial culture of S. aureus MSSA 2 cultured overnight in the presence of colistin (4 mg/L) to induce oxidative stress and activate efflux system[34] was diluted in PBS to OD600 nm = 0.6. The suspension was centrifuged (13,000 × g; 3 min), resuspended in fresh PBS, and distributed into the wells of a black 96-well microtiter plate (ThermoFisher Scientific). Samples were diluted with EtBr solution (4 μg/mL). 50 μL of the mixture was added to 50 μL of the bacterial suspension. The reaction was monitored using SpectraMax iD5Multi-Mode Microplate Reader (ex/em = 530/600 nm) every 60 s for 60 min.

Row | Compound | accumulation of ethidium bromide compared to 100 μM CCCP | efflux inhibition (ethidium bromide accumulation), in words
1 | O=c1c(O)c(-c2ccc(O)c(O)c2)oc2c(Nc3ccc(F)cc3)c(O)cc(O)c12 [compound 5, 2-(3,4-Dihydroxyphenyl)-8-(4-fluoroanilino)-3,5,7-trihydroxy-4H–1-benzopyran-4-one] | 75% | –
2 | O=c1c(O)c(-c2ccc(O)c(O)c2)oc2cc(O)cc(O)c12 [compound 4, quercetin, reference compound] | – | efflux inhibitors
3 | O=c1cc(-c2ccc(O)c(O)c2)oc2cc(O)cc(O)c12 [compound 10, luteolin, reference compound] | – | significantly better than CCCP at the same concentration (100 μM)
4 | O=c1cc(-c2ccc(O)c(O)c2)oc2c(Nc3ccc(F)cc3)c(O)cc(O)c12 [compound 11, 2-(3,4-Dihydroxyphenyl)-8-(4-fluoroanilino)-5,7-dihydroxy-4H–1-benzopyran-4-one] | comparable to 8-(4-fluoroanilino) quercetin (5) | higher activity than CCCP alone
